Results on one molecule are retold here after US9192577B2, “Pharmaceutical compositions comprising a basic drug compound, a surfactant, and a physiologically tolerable water soluble acid” (Janssen Pharmaceutica NV, priority 2002, dated 2015).

SMILES strings stand for the structures.

Data set [1] is described as follows: cytotoxicity (CC50) in mock-infected MT-4 cells (MTT). In kind it is cell-based. The following applies: human, mock-infected MT-4 cells, −log CC50, MTT.
Description: (§1) A rapid, sensitive and automated assay procedure was used for the in vitro evaluation of anti-HIV agents. […] Inhibition of the HIV-induced cytopathic effect was used as the end point. The viability of both HIV- and mock-infected cells was assessed spectrophotometrically via the in situ reduction of 3-(4,5-dimethylthiazol-2-yl)-2,5-diphenyltetrazolium bromide (MTT). The 50% cytotoxic concentration (CC50 in M) was defined as the concentration of compound that reduced the absorbance of the mock-infected control sample by 50%. The percent protection achieved by the compound in HIV-infected cells was calculated by the following formula:
(§2) [formula] whereby (ODT)HIV is the optical density measured with a given concentration of the test compound in HIV-infected cells; (ODC)HIV is the optical density measured for the control untreated HIV-infected cells; (ODC)MOCK is the optical density measured for the control untreated mock-infected cells; all optical density values were determined at 540 nm. The dose achieving 50% protection according to the above formula was defined as the 50% inhibitory concentration (IC50 in M). The ratio of CC50 to IC50 was defined as the selectivity index (SI).
The next data set relates to HIV. Put plainly: in vitro anti-HIV assay: inhibition of HIV-induced cytopathic effect in MT-4 cells (MTT). Format: cell-based. The following applies: pSI = pCC50-pIC50 (selectivity index CC50/IC50). For orientation: Protection from cytopathic effect is a common read-out in antiviral testing.

As usually defined, the melting point is the temperature of the solid-liquid transition. As usually defined, the CC50 is the concentration that lowers cell viability or growth by half. Read a low CC50 as harm at low concentration.

Description for HIV: as §1, §2

Molecule `Cc1cc(-c2ccc(C#N)o2)cc(C)c1Nc1ccnc(Nc2ccc(C#N)cc2)n1` [Compound 126] returned a melting point above 260 °C. Moreover, the half-maximal cytotoxic concentration (CC50) in data set [1] was 12.6 µM. In the data set with HIV, this molecule showed a pSI of −3.5.
